Laboratory results as given in publication PMC5400251, “Effect of quinoline based 1,2,3-triazole and its structural analogues on growth and virulence attributes of Candida albicans” (PLoS ONE, 2017).
Values after ≈ are worked out from the molar mass of the structure shown.

Key:
ergosterol biosynthesis = test: Ergosterol estimation assay
[1] = target: T1, plasma membrane H+ ATPase (Candida albicans, UniProt P28877); test: Measurement of intracellular pH (pHi); format: cell-based, C. albicans D27 (FLC-susceptible); settings: 100 μg/mL; untreated 6.6
T1 construct: endogenous in cells; host or cells: C. albicans ATCC 90028; clinical isolates C. albicans D27 (FLC-susceptible) and D15.9 (FLC-resistant); mid-log phase whole cells
Method: In yeast cells, plasma membrane H^+-ATPase helps to maintain internal pH between 6.0 and 7.5. Intracellular pH (pHi) was measured as reported earlier by Manzoor et al.. Mid-log phase cells were harvested from SD medium and washed thrice with PBS. Subsequently, cells (0.1 g) were suspended in 5 mL solution of 0.1 M KCl, and 0.1 mM CaCl2 in distilled water. Compounds 3a and 3b were added to the suspension at a desired concentration of 100 μg/mL. […] Initial pH of the suspension was adjusted to 7.0 in each case and incubated for 30 min at 37°C with constant stirring. After incubation, the pH of suspension was again adjusted to 7.0 followed by the addition of nystatin (20 μM) and incubation at 37°C for 1 h. The change in pH of the suspension was monitored on a pH meter with constant stirring. The value of external pH at which nystatin permeabilization induced no further shift was taken as an estimate of pHi.

[2] = test system: C. albicans D27 (FLC-sensitive clinical isolate); test: Broth dilution IC50 determination; format: cell-based; settings: Candida albicans, 24 h; read-out: Anti-Candida Activity (IC50± S.D.) C. albicans D27
Method: (§1) Broth dilution technique was employed to determine the IC50 values of all the synthesized 1,2,3 triazole derivatives (3a-c) against C. albicans ATCC 90028, C. glabrata ATCC 90030, C. tropicalis ATCC 750 and four clinical isolates of C. albicans namely D27, D31, D39 (FLC-sensitive) and D15.9 (FLC-resistant). The strains were maintained on yeast extract:peptone:dextrose ([…]) nutrient agar (2.5%) slants at 4°C. The test compounds were dissolved in DMSO with less than 4% concentration of it in the final test volume. Different concentrations (1000… 7.8 μg/mL) of test compounds in Sabouraud dextrose (SD) broth medium were dispensed into the wells, then inoculated with the test organism with approx. 2.5 × 10^3 cells/mL and incubated at 37°C for 24 h. After incubation period, the optical density was measured at 600 nm by using Thermo Scientific Multiskan Go plate reader. […] All the experiments were done in triplicate at separate times.

[3] = test system: C. albicans D31 (FLC-sensitive clinical isolate); test: Broth dilution IC50 determination; format: cell-based; settings: Candida albicans, 24 h; read-out: Anti-Candida Activity (IC50± S.D.) C. albicans D31
Method: as §1

[4] = test system: C. albicans D39 (FLC-sensitive clinical isolate); test: Broth dilution IC50 determination; format: cell-based; settings: Candida albicans, 24 h; read-out: Anti-Candida Activity (IC50± S.D.) C. albicans D39
Method: as §1

C. albicans ATCC 90028 [5] = test: Broth dilution IC50 determination; format: cell-based; settings: Candida albicans, ATCC90028, SD broth, 37°C, 24 h, OD 600 nm, read-out: Anti-Candida Activity (IC50± S.D.) C. albicans ATCC90028
Method: as §1

C. glabrata ATCC 90030 = test: Broth dilution IC50 determination; format: cell-based; settings: Nakaseomyces glabratus, ATCC90030, SD broth, 37°C, 24 h, OD 600 nm, read-out: Anti-Candida Activity (IC50± S.D.) C. glabrata ATCC90030
Method: as §1

C. tropicalis ATCC 750 = test: Broth dilution IC50 determination; format: cell-based; settings: Candida tropicalis, ATCC750, SD broth, 37°C, 24 h, OD 600 nm, read-out: Anti-Candida Activity (IC50± S.D.) C. tropicalis ATCC750
Method: as §1

C. albicans ATCC 90028 [6] = test: Transmission electron microscopic analysis of morphology; format: cell-based; settings: MIC, 1 h exposure
Method: The morphology of C. albicans ATCC 90028 was analyzed using TEM following the standard protocol. […] Cells were then washed thrice with phosphate buffer solution to remove the residual medium and fixed overnight in 2.5% glutaraldehyde in phosphate/magnesium buffer (40 mM K2HPO4/KH2PO4, pH 6.5–0.5 mM MgCl2). Cells were washed twice for 15 min in 0.1 M sodium phosphate buffer (pH 6.0) and post-fixed for 2 h in 2% osmium tetroxide. Cells were again washed twice for 15 min in distilled water and then en bloc stained with 1% uranyl acetate (aqueous) for 30 min. After two further washes, cells were dehydrated in 95% and 100% ethanol. Cells were then exposed to propylene oxide for 2×10 min and infiltrated for 1 h in 1:1 propylene/epoxy embedding material (Epon) mixture and then overnight in fresh Epon. After polymerization for 48 h at 60°C, ultrathin sections were cut using a microtome (LeicaEM UC6) and transferred to a copper grid. Samples were stained with uranyl acetate (saturated solution of uranyl acetate in 50% alcohol) followed by lead citrate. Samples were washed three times in Milli-Q (MQ) water and dried by touching Whatman filter paper. Sections were examined with a FEI Tecnai G^2 TF20 transmission electron microscope at 200 KV.

Hemolytic assay = format: cell-based; settings: human, human red blood cells (erythrocyte suspension), 37°C, read-out: Hemolysis of hRBCs
Method: Human blood from a healthy individual was collected in tubes containing EDTA as anti-coagulant. The erythrocytes were harvested by centrifugation for 10 min at 2000 rpm and 20°C, washed three times in PBS. To the pellet, PBS was added to yield a 10% (v/v) erythrocytes/PBS suspension. The 10% suspension was then diluted 1:10 in PBS. From each suspension, 100 μL was added in triplicate to 100 μL of a different dilution series of test compounds in the same buffer in micro centrifuge tubes. […] The tubes were incubated for 1 h at 37°C and then centrifuged for 10 min at 2000 rpm and 20°C. From the supernatant, 150 μL was transferred to a flat-bottomed microtiter plate (Tarson), and the absorbance was measured spectrophotometrically at 450 nm. The hemolysis percentage was calculated by following equation: %Hemolysis=[(A450oftestcompoundtreatedsample−A450ofbuffertreatedsample)÷(A450of1%TritonX−100treatedsample−A450ofbuffertreatedsample)]×100

[7] = test system: C. albicans D15.9 (FLC-resistant clinical isolate); test: Broth dilution IC50 / MIC determination; format: cell-based; settings: Candida albicans; for IC50: 24 h, read-out: Anti-Candida Activity (IC50± S.D.) C. albicans D15.9
Method: as §1

T1 sequence (P28877 whole entry): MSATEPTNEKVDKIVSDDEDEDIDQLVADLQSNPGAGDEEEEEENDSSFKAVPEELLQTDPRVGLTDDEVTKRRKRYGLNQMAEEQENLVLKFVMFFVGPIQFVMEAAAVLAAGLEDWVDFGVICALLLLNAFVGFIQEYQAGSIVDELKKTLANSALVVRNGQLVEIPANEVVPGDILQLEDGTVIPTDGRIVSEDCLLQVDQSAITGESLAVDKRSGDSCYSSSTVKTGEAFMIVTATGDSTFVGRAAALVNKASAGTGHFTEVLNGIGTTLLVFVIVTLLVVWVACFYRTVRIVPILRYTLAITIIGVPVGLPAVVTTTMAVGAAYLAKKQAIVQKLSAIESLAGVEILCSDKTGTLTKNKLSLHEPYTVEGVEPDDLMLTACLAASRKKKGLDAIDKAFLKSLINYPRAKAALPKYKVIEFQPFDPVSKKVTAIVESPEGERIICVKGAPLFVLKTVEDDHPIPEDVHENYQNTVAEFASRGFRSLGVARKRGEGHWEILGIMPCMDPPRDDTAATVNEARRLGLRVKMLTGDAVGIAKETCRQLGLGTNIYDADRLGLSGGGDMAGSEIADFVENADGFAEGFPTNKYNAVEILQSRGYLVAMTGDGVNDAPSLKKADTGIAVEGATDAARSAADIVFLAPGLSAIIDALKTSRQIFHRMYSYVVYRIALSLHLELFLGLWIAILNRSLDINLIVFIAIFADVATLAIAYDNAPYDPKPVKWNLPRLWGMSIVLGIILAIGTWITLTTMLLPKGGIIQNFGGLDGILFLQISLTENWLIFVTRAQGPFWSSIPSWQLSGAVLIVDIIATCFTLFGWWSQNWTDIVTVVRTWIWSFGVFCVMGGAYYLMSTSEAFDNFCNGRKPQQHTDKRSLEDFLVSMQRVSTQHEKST

SMILES	Mean decrease in total ergosterol content (ergosterol biosynthesis; above MIC/2, 16 h) [%]	Mean decrease in total ergosterol content (ergosterol biosynthesis; at MIC/4, 16 h) [%]	Intracellular pH (pHi) [1]	IC50 [2] [µg/mL]	IC50 [3] [µg/mL]	IC50 [4] [µg/mL]	IC50 (C. albicans ATCC 90028 [5]) [µg/mL]	IC50 (C. glabrata ATCC 90030) [µg/mL]	IC50 (C. tropicalis ATCC 750) [µg/mL]	Cell morphology by TEM (C. albicans ATCC 90028 [6])	hemolysis at 1 h, 500 μg/mL (Hemolytic assay) [%]	MIC [7] [µg/mL]	IC50 [7] [µg/mL]
c1ccc(Cn2cc(COc3cccc4cccnc34)nn2)cc1 [Compound 3a]	100	48	5.2	1.9 ± 0.09 (≈ 6.01 µM)	3.3 ± 0.065 (≈ 10.4 µM)	4.1 ± 0.02 (≈ 13 µM)	0.044 ± 0.11 (≈ 0.139 µM)	12.02 ± 0.02 (≈ 38 µM)	3.6 ± 0.07 (≈ 11.4 µM)	several deformations	4.76	25 (≈ 79 µM)	2.3 ± 0.05 (≈ 7.27 µM)
Clc1ccc(OCc2cn(Cc3ccccc3)nn2)c2ncccc12 [Compound 3b, 8-((1-Benzyl-1H-1,2,3-triazol-4-yl)methoxy)-5-chloroquinoline]	100	33	5.1	33.7 ± 1.51 (≈ 96.1 µM)	41.5 ± 1.24 (≈ 118 µM)	47.1 ± 0.39 (≈ 134 µM)	25.4 ± 0.76 (≈ 72.4 µM)	73.3 ± 1.41 (≈ 209 µM)	23.6 ± 0.83 (≈ 67.3 µM)	several deformations	26.8	250 (≈ 713 µM)	32.8 ± 1.25 (≈ 93.5 µM)
